Measurements reported in US20240115654A1, “INTRAVENOUS ADMINISTRATION OF ENGINEERED ANTIMICROBIAL AMPHIPHILIC PEPTIDES” (priority 2021, published 2024).
In brackets after ≈: the same amount, converted by molar mass. Several values for one entry are separate records, joined by “and”; a condition that tells them apart may be missing. Equal entries are not always repeated. Where two headings read alike, the source gives them in different places. Peptide text beside a SMILES is read from it.

Tests used:
[1] = tested on: Pseudomonas aeruginosa ATCC 27853 (non-MDR; QC); conditions: P. aeruginosa ATCC 27853; established CLSI QC range; cited from earlier work
[2] = tested on: Streptococcus pneumoniae ATCC 49619 (QC); conditions: S. pneumoniae ATCC 49619; established CLSI QC range; cited from earlier work
[3] = tested on: Enterobacter spp. isolates (Enterobacter aerogenes and E. cloacae, n = 102); assay: organism not typed
Protocol: (§1) Comparator antibiotics were supplied by Micromyx, and stock solutions were prepared on the first day of testing using solvents recommended by CLSI (1). Stock solutions of all compounds were made at 40× the final testing concentration and stored at −80° C. prior to testing. Information regarding compound source, catalog and lot number, testing concentrations and drug diluent for the comparators and test agent are detailed below in Table 3.
(§2) The test organisms evaluated in this study consisted of clinical isolates from the Micromyx Repository and reference isolates from the American Type Culture Collection (ATCC; Manassas, VA). The clinical isolates were obtained from USA hospitals. Upon initial receipt at Micromyx, the organisms were sub-cultured onto an appropriate agar medium. Following incubation, colonies were harvested from these plates and cell suspensions prepared and frozen at −80° C. with a cryoprotectant. Prior to testing, the isolates were streaked from frozen vials onto Trypticase Soy Agar with 5% sheep blood (Becton Dickenson [BD]; Sparks, MD; Lot Nos. 7173618, 7166759, 7208688, 72144895, 7228505 and Remel Lenexa, KS Lot No. 212574). Plates were incubated at 35° C. overnight.
(§3) Mueller Hinton II broth (MHB II; BD; Lot Nos. 6258541 and 7143896) was used for MIC testing of aerobic organisms.
(§4) MIC values were determined using a broth microdilution procedure described by CLSI (1, 3). Automated liquid handlers (Multidrop 384, Labsystems, Helsinki, Finland; Biomek 2000 and Biomek FX, Beckman Coulter, Fullerton CA) were used to conduct serial dilutions and liquid transfers.
(§5) To prepare the drug mother plates, which would provide the serial drug dilutions for the replicate daughter plates, the wells of columns 2-12 of standard 96-well microdilution plates (Costar 3795) were filled with 150 μl of the designated diluent for each row of drug. The test articles and comparator compounds (300 μl at 40× the highest concentration to be tested) were dispensed into the appropriate wells in column 1. The Biomek 2000 was then used to make 2-fold serial dilutions in the mother plates from column 1 through column 11. The wells of Column 12 contained no drug and served as the organism growth control wells for the assay.
(§6) The daughter plates were loaded with 185 μL per well of MHB II using the Multidrop 384. The daughter plates were completed on the Biomek FX instrument which transferred 5 μL of drug solution from each well of a mother plate to the corresponding well of each daughter plate in a single step. A standardized inoculum of each test organism was prepared per CLSI methods (1). The inoculum for each organism was dispensed into sterile reservoirs divided by length (Beckman Coulter), and the Biomek 2000 was used to inoculate the plates. Daughter plates were placed on the Biomek 2000 work surface in reverse orientation so that inoculation took place from low to high drug concentration.
(§7) Plates were stacked 3-4 high, covered with a lid on the top plate, placed in plastic bags, and incubated at 35° C. for 16 to 20 hrs. Following incubation, the microplates were removed from the incubator and viewed from the bottom using a plate viewer. […] The MIC was read and recorded as the lowest concentration of drug that inhibited visible growth of the organism.
(§8) Clinical breakpoints to determine percent resistance within a given organism group were obtained from CLSI (3), with the exception of colistin for K. pneumoniae, Enterobacter spp., and E. coli, which are only available from EUCAST.

[4] = tested on: Escherichia coli ATCC 25922 (QC); conditions: E. coli ATCC 25922; established CLSI QC range; cited from earlier work
[5] = tested on: Staphylococcus aureus ATCC 29213 (MSSA; QC); conditions: S. aureus ATCC 29213; established CLSI QC range; cited from earlier work
[6] = tested on: Pseudomonas aeruginosa isolates (n = 109); conditions: Pseudomonas aeruginosa (n = 109), CLSI breakpoints
Protocol: as §1, §2, §3, §4, §5, §6, §7, §8

[7] = tested on: Escherichia coli isolates (n = 101); conditions: Escherichia coli (n = 101); CLSI breakpoints, colistin EUCAST
Protocol: as §1, §2, §3, §4, §5, §6, §7, §8

[8] = tested on: Klebsiella pneumoniae isolates (n = 101); conditions: Klebsiella pneumoniae (n = 101); CLSI breakpoints, colistin EUCAST
Protocol: as §1, §2, §3, §4, §5, §6, §7, §8

[9] = tested on: Acinetobacter spp. isolates (n = 104); conditions: Acinetobacter spp. (n = 104); CLSI breakpoints
Protocol: as §1, §2, §3, §4, §5, §6, §7, §8

[10] = tested on: Enterococcus faecalis ATCC 29212 (VSE; QC); conditions: E. faecalis ATCC 29212; established CLSI QC range; cited from earlier work
[11] = 1.0 mg/kg, 30 min IV infusion, individual monkeys
Protocol: Animals will be obtained from the Test Facility's colony of adult male cynomolgus monkeys (Macaca fascicularis) of Chinese origin. Animals will be weighed prior to dosing.
Animals will be fasted a minimum of 2 hours prior to procedures requiring the administration of ketamine anesthesia. The diet will also be supplemented with other nutrients by feeding items such as raisins or fresh fruits that are presented to the animal as part of an environmental enrichment program. Offering items known to cause diarrhea will be avoided.
Intravenous administration will be via 30 minute infusion into a temporary percutaneous catheter placed into a saphenous vein. […]
The peptide will be purified from plasma samples from each macaque using a cation exchange-based solid-phase extraction process. Prior to extraction, a known concentration of a mass-adjusted internal standard (IS) will be added to assess recovery and allow for quantitation. […] Compound plasma concentrations will be determined by comparing to and compensating with co-purified IS peak intensity and validated calibrated standard curves.
Toxicokinetic parameters will be calculated using non-compartmental methods as implemented in the Phoenix® WinNonlin® ver. […] Values below the lower limit of quantitation (BLQ) will be assigned a value of zero for the toxicokinetic calculations. […]

| SMILES | MIC QC range (in parentheses under the MIC) [1] | MIC QC range (in parentheses under the MIC) [2] | MIC50 [3] | MIC90 [3] | % R (percent of isolates resistant) ([3]; Enterobacter spp. (n = 102), CLSI breakpoints, colistin EUCAST) | MIC ([3]; read-out: Mode (MIC)) | MIC QC range (in parentheses under the MIC) [4] | MIC QC range (in parentheses under the MIC) [5] | % R (percent of isolates resistant) [6] | % R (percent of isolates resistant) ([6]; listed as meropenem) | % R (percent of isolates resistant) [7] | % R (percent of isolates resistant) [8] | % R (percent of isolates resistant) [9] | MIC QC range (in parentheses under the MIC) [10] | Dose Normalized Cmax [11] |
| --- | --- | --- | --- | --- | --- | --- | --- | --- | --- | --- | --- | --- | --- | --- | --- |
| C[C@@H](O)[C@H]1C(=O)N2C(C(=O)O)=C(S[C@@H]3CN[C@H](C(=O)N(C)C)C3)[C@H](C)[C@H]12 [Meropenem] | (0.12-1) μg/mL | (0.03-0.25) μg/mL | 0.03 µg/mL (≈ 0.0782 µM) | 0.12 µg/mL (≈ 0.313 µM) | 3.9% | 0.03 µg/mL (≈ 0.0782 µM) | (0.008-0.06) μg/mL | (0.03-0.12) μg/mL | 20.2% | 20% | 1% | 50.5% | 65.4% | (2-8) μg/mL | – |
| C[C@@H](O)[C@H](NC(=O)[C@H](Cc1c[nH]cn1)NC(=O)[C@@H](NC(=O)[C@H](CCCCN)NC(=O)[C@H](CCCCN)NC(=O)[C@@H](NC(=O)[C@H](CCCCN)NC(=O)[C@@H](NC(=O)[C@H](Cc1c[nH]cn1)NC(=O)[C@@H](NC(=O)[C@H](CCCCN)NC(=O)[C@H](CCCCN)NC(=O)[C@@H](NC(=O)[C@H](CCCCN)NC(=O)[C@@H](NC(=O)[C@H](Cc1c[nH]cn1)NC(=O)[C@@H](NC(=O)[C@H](CCCCN)NC(=O)[C@@H](N)CCCCN)[C@@H](C)O)[C@@H](C)O)[C@@H](C)O)[C@@H](C)O)[C@@H](C)O)[C@@H](C)O)[C@@H](C)O)C(=O)N[C@@H](CCCCN)C(=O)O [SEQ ID NO: 13] (H-KKTHTKTKKTHTKTKKTHTK-OH) | – | – | – | – | – | – | – | – | – | – | – | – | – | – | 5000 and 7000 and 6000 |
